Earlier results, collected in patent US6642275B2, “Formulation for respiratory tract administration” (Euro- Celtique, S.A., priority 1995, dated 2003).
Read-outs that look alike come from different tables or passages of the source.

Experiments:
[1] = for plasma clearance rate: 100 mg IV dose
[2] = animal models, M1 vs tramadol
[3] = single oral dose, adjusted for body weight

In the case of `COc1cccc([C@@]2(O)CCCC[C@H]2CN(C)C)c1` (racemic) [tramadol, (±) trans-2-[(dimethylamino)methyl]-1-(3-methoxyphenyl) cyclohexanol], the plasma clearance rate ([1]; females) is listed as 5.7 mL/min/kg, the plasma clearance rate ([1]; males) is listed as 6.4 mL/min/kg and the “higher area under the concentration-time curve in females compared to males” value [1, 3] is listed as 35%. For the same compound, the “higher peak tramadol concentration in females compared to males” value [1, 3] was 12%.
For `CN(C)C[C@H]1CCCC[C@]1(O)c1cccc(O)c1` [Formula M1, mono-O-desmethyltramadol], the “potency in producing analgesia relative to tramadol” value [2] is listed as “up to 6 times”, the “potency in producing analgesia relative to tramadol” value ([2]; listed as mono-O-desmethyltramadol) is listed as “about 6 times” and the “binding to opioid receptors (affinity, in words)” value (opioid receptors) is listed as “high affinity”. The “potency in opioid receptor binding relative to tramadol” value (opioid receptors; M1 vs tramadol) was 200 times.
